Structures can show the parent of a compound that is named as a salt. Where two headings read alike, the source gives them in different places.
What was measured:
[1] = test system: T. cruzi (Tulahuen strain); assay: microbe, parasite or virus in culture; format: cell-based, Trypanosoma cruzi; details: for activity at 10 µM / EC50: Trypanosoma cruzi, TULAHUEN, Fibroblast; for activity at 10 µM: 120 h, read-out: T. cruzi % growth @ 10 uM (Amastigotes); for EC50: read-out: T. cruzi EC50
Protocol: Compounds were tested against T. cruzi (Tulahuen strain) stably expressing the beta-galactosidase gene as previously described. […] Fibroblasts were plated at a density of 2×10^3 per well in 96 well tissue culture plates. After 24 hours of incubation, 1×10^4 trypomastigotes/well were added to the fibroblasts and incubated for 4 hours before addition of the test compounds from the Spectrum Collection (10 µM final concentration). Cultures were incubated at 37°C for 5 days, then developed with chlorophenol red β-D-galactopyranoside as previously described. The percent inhibition is reported with standard deviation of the mean. […] Z-prime values were calculated for each 96-well plate based on positive (4 wells) and negative controls (4 wells).

3T3 fibroblast cells = assay: cells; format: cell-based, murine; details: for activity at 10 µM: Mus musculus, NIH3T3, 72 h, read-out: Mammalian (3T3) cell % growth at 10 uM

Row | SMILES | activity at 10 µM ([1]; 10 uM, Table S2) [%] | activity at 10 µM (3T3 fibroblast cells; 10 uM, Table S2) [%] | other results
1 | CC(=O)OC1C(=O)C2(C)C(O)CC3OCC3(OC(C)=O)C2C(OC(=O)c2ccccc2)C2(O)CC(OC(=O)C(O)C(NC(=O)c3ccccc3)c3ccccc3)C(C)=C1C2(C)C (stereo not shown) [PACLITAXEL, 4,12-bis(acetyloxy)-1,9-dihydroxy-15-{[2-hydroxy-3-phenyl-3-(phenylformamido)propanoyl]oxy}-10,14,17,17-tetramethyl-11-oxo-6-oxatetracyclo[11.3.1.0^{3,10}.0^{4,7}]heptadec-13-en-2-yl benzoate] | – | – | activity at 10 µM ([1]; 10 uM, Table S1): 0.2%; activity at 10 µM (3T3 fibroblast cells; 10 uM, Table S1): 58.1%
2 | CC(=O)OC1CC2C(C)(C)C(O)CCC2(C)C2CCC3(C)C(c4ccoc4)OC(=O)C4OC43C12C (stereo not drawn) [beta-DIHYDROGEDUNOL, 7-(furan-3-yl)-15-hydroxy-1,8,12,16,16-pentamethyl-5-oxo-3,6-dioxapentacyclo[9.8.0.0^{2,4}.0^{2,8}.0^{12,17}]nonadecan-19-yl acetate] | 21.8 | 76.3 | –
3 | O=c1c(O)c(-c2ccc(O)c(O)c2)oc2c(OC3OC(CO)C(O)C(O)C3O)c(O)cc(O)c12 (stereo not shown) [GOSSYPIN, 2-(3,4-dihydroxyphenyl)-3,5,7-trihydroxy-8-{[3,4,5-trihydroxy-6-(hydroxymethyl)oxan-2-yl]oxy}-4H-chromen-4-one] | 17.7 | 100 | –
4 | CC(=O)OC1CC2C(C)(C)C(=O)CCC2(C)C2CCC3(C)C(c4ccoc4)OC(=O)C4OC43C12C (stereo not shown) [DIHYDROGEDUNIN, 7-(furan-3-yl)-1,8,12,16,16-pentamethyl-5,15-dioxo-3,6-dioxapentacyclo[9.8.0.0^{2,4}.0^{2,8}.0^{12,17}]nonadecan-19-yl acetate] | 5.8 | 81.4 | –
5 | NCC(=O)c1ccccc1 [PHENACYLAMINE, 2-amino-1-phenylethan-1-one hydrochloride] | 4.8 | 85.5 | –
6 | O=c1c(O)c(-c2ccccc2)oc2cccc(O)c12 [3,5-DIHYDROXYFLAVONE] | 12.3 | 99.6 | –
7 | N#Cc1nn(-c2c(Cl)cc(C(F)(F)F)cc2Cl)c(N)c1[S+]([O-])C(F)(F)F (stereo not shown) [FIPRONIL, 5-amino-1-[2,6-dichloro-4-(trifluoromethyl)phenyl]-4-(trifluoromethane)sulfinyl-1H-pyrazole-3-carbonitrile] | 3.7 | 100 | –
8 | Oc1ccc(O)cc1 [HYDROQUINONE, benzene-1,4-diol] | – | – | activity at 10 µM [1]: 22.6%; activity at 10 µM (3T3 fibroblast cells): 93.9%
9 | COc1ccc(-c2cc(=O)c3c(O)cc(O)cc3o2)cc1 [ACACETIN, 5,7-dihydroxy-2-(4-methoxyphenyl)-4H-chromen-4-one] | 23.1 | 77.4 | –
10 | CCC(=C(c1ccccc1)c1ccc(OCCN(C)C)cc1)c1ccccc1 [TAMOXIFEN, {2-[4-(1,2-diphenylbut-1-en-1-yl)phenoxy]ethyl}dimethylamine] | 22.5 | 97 | –
11 | COc1c2c(cc3occ(-c4ccc5c(c4)OCO5)c(=O)c13)OC(C)(C)C=C2 [METHYL ROBUSTONE, 3-(2H-1,3-benzodioxol-5-yl)-5-methoxy-8,8-dimethyl-4H,8H-pyrano[3,2-g]chromen-4-one] | 2.5 | 68.2 | –
12 | C[C@@H]1CC[C@@]23CCC4(C)[C@@](C=CC5[C@@]6(C)CCC(=O)C(C)(C)C6CC[C@]54C)(OC2=O)C3[C@H]1C (stereo partly shown) [3-OXOURSAN (28-13)OLIDE] | 11.1 | 100 | –
13 | CN1CCc2c(c3ccccc3n2Cc2ccccc2)C1.O=S(=O)(O)c1cccc2c(S(=O)(=O)O)cccc12 [MEBHYDROLIN NAPHTHALENESULFONATE, 5-benzyl-2-methyl-1H,2H,3H,4H,5H-pyrido[4,3-b]indole; naphthalene-1,5-disulfonic acid] | – | – | T. cruzi % growth @ 10 uM (Amastigotes) ([1]; 10 uM, Table S2): 3.3%; Mammalian (3T3) cell % growth at 10 uM (3T3 fibroblast cells; 10 uM, Table S2): 100%
14 | CC(C)c1c(O)ccc2c1CCC1C(C)(C)CCCC21C (stereo not shown) [TOTAROL, 4b,8,8-trimethyl-1-(propan-2-yl)-4b,5,6,7,8,8a,9,10-octahydrophenanthren-2-ol] | 21.3 | 67.4 | –
15 | O=c1c(O)c(-c2ccccc2)oc2ccccc12 [3-HYDROXYFLAVONE, 3-hydroxy-2-phenyl-4H-chromen-4-one] | 4.1 | 85.7 | –
16 | CCC1(O)C(=O)OCc2c1cc1n(c2=O)Cc2cc3ccccc3nc2-1 (stereo not shown) [CAMPTOTHECIN, 19-ethyl-19-hydroxy-17-oxa-3,13-diazapentacyclo[11.8.0.0^{2,11}.0^{4,9}.0^{15,20}]henicosa-1(21),2,4(9),5,7,10,15(20)-heptaene-14,18-dione] | 3.9 | – | activity at 10 µM (3T3 fibroblast cells): 94.3%
17 | CC(C)COCC(CN(Cc1ccccc1)c1ccccc1)N1CCCC1 (stereo not shown) [BEPRIDIL, N-benzyl-N-[3-(2-methylpropoxy)-2-(pyrrolidin-1-yl)propyl]aniline hydrochloride] | 24.4 | 89.6 | –
18 | CCCCCC(=O)O[C@]1(C(C)=O)CC[C@H]2C3CCC4=CC(=O)CCC4(C)[C@H]3CCC21C (stereo partly drawn) [HYDROXYPROGESTERONE CAPROATE, (1S,11S,14R)-14-acetyl-2,15-dimethyl-5-oxotetracyclo[8.7.0.0^{2,7}.0^{11,15}]heptadec-6-en-14-yl hexanoate] | 1.8 | 100 | EC50 ([1]; Table S2, amastigotes): 10000 nM
19 | COC1CC(OC2C(C)C(=O)OC(C)C(C)C(O)C(C)C(=O)C3(CO3)CC(C)C(OC3OC(C)CC(N(C)C)C3O)C2C)OC(C)C1O (stereo not shown) [OLEANDOMYCIN PHOSPHATE, 14-{[4-(dimethylamino)-3-hydroxy-6-methyloxan-2-yl]oxy}-6-hydroxy-12-[(5-hydroxy-4-methoxy-6-methyloxan-2-yl)oxy]-5,7,8,11,13,15-hexamethyl-1,9-dioxaspiro[2.13]hexadecane-4,10-dione; phosphoric acid] | 15.7 | 100 | –
20 | COc1cc2ccc(=O)oc2c(O)c1O [FRAXETIN, 7,8-dihydroxy-6-methoxy-2H-chromen-2-one] | 8.1 | 100 | –
21 | Clc1ccccc1C(c1ccccc1)(c1ccccc1)n1ccnc1 [CLOTRIMAZOLE, 1-[(2-chlorophenyl)diphenylmethyl]-1H-imidazole] | 10.2 | 100 | –
22 | CCN(CC)CCOc1ccc(C(=C(Cl)c2ccccc2)c2ccccc2)cc1 [CLOMIPHENE, {2-[4-(2-chloro-1,2-diphenylethenyl)phenoxy]ethyl}diethylamine] | 12.9 | 100 | –
23 | CNc1ccc(C(=O)CC(O)CCC(C)C2OC(=O)CC(O)CC(=O)CC(O)CC(O)CC(O)CC(O)CC3(O)CC(O)C(C(=O)OC)C(CC(O[C@@H]4O[C@H](C)[C@@H](O)[C@H](N)[C@@H]4O)/C=C/C=C/C=C/C=C\C=C/C=C/C=C/C2C)O3)cc1 (stereo partly drawn) [MEPARTRICIN, methyl (19E,21E,23Z,25Z,27E,29E,31E)-33-{[(2R,3S,4S,5S,6R)-4-amino-3,5-dihydroxy-6-methyloxan-2-yl]oxy}-1,3,5,7,9,13,37-heptahydroxy-17-{5-hydroxy-7-[4-(methylamino)phenyl]-7-oxoheptan-2-yl}-18-methyl-11,15-dioxo-16,39-dioxabicyclo[33.3.1]nonatriaconta-19,21,23,25,27,29,31-heptaene-36-carboxylate] | 2.6 | 97.3 | –
24 | CCOc1ccc(C(=O)c2ccc(OC)c(O)c2O)cc1 [2,3-DIHYDROXY-4-METHOXY-4'-ETHOXYBENZOPHENONE] | 9.1 | 95.8 | –
25 | COc1ccc(-c2cc(=O)c3ccccc3o2)cc1 [4'-METHOXYFLAVONE, 2-(4-methoxyphenyl)-4H-chromen-4-one] | 18.7 | 100 | –
26 | CNc1ccccc1C(=O)N1CCc2c([nH]c3ccccc23)C1=O [RHETSININE, 2-{[2-(methylamino)phenyl]carbonyl}-1H,2H,3H,4H,9H-pyrido[3,4-b]indol-1-one] | 5.9 | 75.7 | –
27 | CC1C=CC=CC=CC=CC=CC=CC=CC(OC2OC(C)C(O)C(N)C2O)CC2OC(O)(CC(O)CC(O)C(O)CCC(O)CC(O)CC(=O)OC(C)C(C)C1O)CC(O)C2C(=O)O (stereo not shown) [AMPHOTERICIN B, 33-[(4-amino-3,5-dihydroxy-6-methyloxan-2-yl)oxy]-1,3,5,6,9,11,17,37-octahydroxy-15,16,18-trimethyl-13-oxo-14,39-dioxabicyclo[33.3.1]nonatriaconta-19,21,23,25,27,29,31-heptaene-36-carboxylic acid] | 20.6 | 89.7 | EC50 ([1]; Table S2, amastigotes): 0.04 nM; EC50 [1]: 40 nM
28 | COC(=O)CCC(C)C1CCC2C3CCC4CC(O)CCC4(C)C3CC(O)C12C (stereo not shown) [METHYL DEOXYCHOLATE, methyl 4-{5,16-dihydroxy-2,15-dimethyltetracyclo[8.7.0.0^{2,7}.0^{11,15}]heptadecan-14-yl}pentanoate] | 22.9 | 100 | –
29 | COc1ccc2cc3[n+](cc2c1OC)CCc1cc2c(cc1-3)OCO2 [BERBERINE, 16,17-dimethoxy-5,7-dioxa-13$l^5-azapentacyclo[11.8.0.0^{2,10}.0^{4,8}.0^{15,20}]henicosa-1(21),2,4(8),9,13,15,17,19-octaen-13-ylium] | 4.1 | 75.8 | –
